Literature values as cited in patent US20070218480A1, “DETECTION AND DIAGNOSIS OF SMOKING RELATED CANCERS” (THE BOARD OF REGENTS OF THE UNIVERSITY OF TEXAS SYSTEM, priority 2006, published 2007).
Read-outs that look alike come from different tables or passages of the source.

Legend:
[1] = stored at in a dry, airtight, light-resistant environment
[2] = mice
[3] = test system: NSCLC patients

For `CC[C@@]1(O)C(=O)OCc2c1cc1n(c2=O)Cc2cc3ccccc3nc2-1` [Camptothecin], the storage stability [1] is listed as “at least two”.

In the case of Bleomycin, the tissue distribution [2] is given as “high concentrations of bleomycin are found in the skin, lungs, kidneys, peritoneum, and lymphatics”.

For `COc1cc2ncnc(Nc3ccc(F)c(Cl)c3)c2cc1OCCCN1CCOCC1` [gefitinib], the “objective response (OR)” value ([3]; HER2 FISH-negative (no or low gain) NSCLC patients treated with gefitinib) is listed as 6.4%, the “disease control rate (DCR)” value ([3]; HER2 FISH-negative patients) is listed as 33.3% and the “overall survival (OS)” value ([3]; HER2 FISH-negative patients) is listed as 8.4 months. For the same compound, the “time to progression (TTP)” value ([3]; HER2 FISH-negative patients) was 2.7 months, the “objective response (OR)” value ([3]; HER2 FISH-positive (high copy number) NSCLC patients treated with gefitinib) was 34.8% and the “disease control rate (DCR)” value ([3]; HER2 FISH-positive patients) was 56.5%. The “overall survival (OS)” value ([3]; HER2 FISH-positive patients) was 20.8 months and the “time to progression (TTP)” value ([3]; HER2 FISH-positive patients) was 9.05 months.
